Data: US8609608B2, “Antimicrobial peptides” (C3 Jian, Inc., priority 2007, dated 2013)
Where no end group is shown, it is not given here.

Key:
[1] = tested on: clinical isolates of S. mutans; type: cell-based, Streptococcus mutans; conditions: clinical isolates of
In short: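 MICs, determined in triplicate by visual inspection, are the lowest peptide level giving a clear well after 16–20 h static anaerobic culture at 37° C. Inocula were 1×10^5 CFU/ml in TH or Veillonella broth. Peptides were twofold-diluted from 500 or 512 μg/ml, with a methanol solvent control.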

[2] = tested on: S. mutans UA159; test: Killing kinetics (time-kill assay); type: cell-based, Streptococcus mutans; conditions: peptide 25 μg/ml; for TC, time required to kill 3 log10 of recoverable CFU/ml: UA159
Method: The determination of killing kinetics for fusion and parental peptides was conducted essentially as described previously (Eckert et al. (2006) Antimicrob. Agents Chemother. 50: 1480-1488). Briefly, medium-diluted overnight UA159 cultures (0.5×10^6 to 1×10^6 CFU/ml) were challenged with peptide at a concentration of 25 μg/ml, and at the indicated time intervals (“0 min” indicates untreated samples), a 10-μL aliquot was removed and the surviving CFU were rescued by dilution (1:50) into growth medium and then spread on TH agar plates for quantitation. […] Kinetics were determined by recording the average number of surviving CFU/ml versus incubation time in the presence of peptide (all assays were independently repeated three to five times). For Table 8, time to bactericidal killing (TC) values were defined as the time required for the level of surviving CFU/ml from peptide-treated cultures to fall 3 log10 below the levels of recovered S. mutans CFU/ml from untreated samples.

[3] = tested on: S. mutans
[4] = tested on: V. atypica PK1910; type: cell-based, Veillonella atypica
Method: (§1) S. mutans clinical isolates UA140 (32), UA159 (1), T8 (33), ATCC 25175, GS5 (Kuramitsu and Ingersoll (1977) Infect Immun., 17: 330-337), and all gram-positive strains listed below (see Table 9) were grown under anaerobic conditions in brain heart infusion or Todd-Hewitt (TH) broth (Difco) overnight at 37° C. prior to use (Eckert et al. (2006) Antimicrob. Agents Chemother. 50: 3651-3657). Veillonella atypica PK1910 was grown in Veillonella medium (Egland et al. (2004) Proc. Natl. Acad. Sci., USA, 101: 16917-16922). All strains were grown in an anaerobic atmosphere of 80% N2, 10% CO2, and 10% H2.
(§2) Antibacterial growth inhibition assays were performed using sterile 96-well plates in a final volume of 100 μl, TH or Veillonella medium as described previously (Qi et al. (2005) FEMS Microbial Lett. 251: 321-326). Briefly, bacterial cells were grown overnight to an optical density at 600 nm of 0.75 to 0.8 (corresponding to 1×10^8 CFU/ml) and then diluted to 1×10^5 CFU/ml in broth and aliquoted onto plates. An appropriate volume of peptide stock solution (5 to 20 mg/ml, in water or methanol, depending on solubility) was then added to the first column of the plate to give 500 μg/ml or 512 μg/ml, followed by serial 1:2 dilutions across the plate to give wells containing peptides ranging from 500 to 1.95 μg/ml or 512 to 2 μg/ml. Methanol alone was also added to control for the effects of the solvent. The plates were then incubated at 37° C. under anaerobic conditions for 16 to 20 h without shaking, and the MIC was determined as the concentration of peptide present in the last clear well after visual inspection. Up to 5% (vol/vol) methanol was found not to be antimicrobial (data not shown). MICs were determined in triplicate for all bacteria.

[5] = tested on: L. casei ATCC 4646; type: cell-based, Lactobacillus casei
Method: as §1, §2

[6] = tested on: S. gordonii Challis DL1; type: cell-based, Streptococcus gordonii
Method: as §1, §2

[7] = tested on: S. mitis ATCC 903; type: cell-based, Streptococcus mitis
Method: as §1, §2

[8] = tested on: S. sanguinis NY101; type: cell-based, Streptococcus sanguinis
Method: as §1, §2

## RRRWWWFASASARRRWWWF-NH2 [FRW-3, RRRWWWF-ASASA-RRRWWWF*]
[1]
  MIC (fusion library peptides): 32 µg/mL
[2]
  TC, time required to kill 3 log10 of recoverable CFU/ml: 480 min

## RRRWWWFPSGSPRRRWWWF-NH2 [FRW-4, RRRWWWF-PSGSP-RRRWWWF*]
[1]
  MIC (fusion library peptides): 32 µg/mL
[2]
  TC, time required to kill 3 log10 of recoverable CFU/ml: 420 min

## RWRWRWFGGGRWRWRWF-NH2 [FRW-11, RWRWRWF-GGG-RWRWRWF*]
[1]
  MIC (fusion library peptides): 16 µg/mL
[2]
  TC, time required to kill 3 log10 of recoverable CFU/ml: 90 min

## KLLKGATFHFFHHFFHFFHHF [AA-3]
[3]
  MIC pH 4.9: 6.25 μM
  MIC pH 7.4: >125 μM

## RWRRLLKKLHHLLHGGGIKQLLHFFQRF-NH2 [FBα-21, RWRRLLKKLHHLLH-GGG-IKQLLHFFQRF*]
[1]
  MIC (fusion library peptides): 16 µg/mL
[2]; after 30 min
  fewer CFU/ml recovered from fusion peptide-treated cultures than from parental peptide-treated samples: more than 2 log10

## HHFFHHFHHFFHHF-NH2 [AA-1, HHFFHHFHHFFHHF*]
[3]
  MIC pH 4.9: 12.5 μM
  MIC pH 7.4: >125 μM

## FKKFWKWFRRF-NH2 [Peptide B-33, FKKFWKWFRRF*]
[4]
  MIC V. atypica PK1910: 16 µg/mL
[5]
  MIC L. casei ATCC 4646: 32 µg/mL
[1]
  MIC: 8 to 24 µg/mL
[6]
  MIC S. gordonii Challis DL1: 32 µg/mL
[7]
  MIC S. mitis ATCC 903: 32 µg/mL
[8]
  MIC S. sanguinis NY101: 32 µg/mL

## RWRWRWFPSGSPRWRWRWF-NH2 [FRW-10, RWRWRWF-PSGSP-RWRWRWF*]
[1]
  MIC (fusion library peptides): 32 µg/mL
[2]
  TC, time required to kill 3 log10 of recoverable CFU/ml: 270 min

## LKRFLKWFKRF-NH2 [Peptide B-34, LKRFLKWFKRF*]
[4]
  MIC V. atypica PK1910: 32 µg/mL
[5]
  MIC L. casei ATCC 4646: 16 µg/mL
[1]
  MIC: 8 to 24 µg/mL
[6]
  MIC S. gordonii Challis DL1: 32 µg/mL
[7]
  MIC S. mitis ATCC 903: 64 µg/mL
[8]
  MIC S. sanguinis NY101: 16 µg/mL

## LYHFLHWFQRF [AA-7, LYHFLHWFQRF]
[3]
  MIC pH 4.9: >50 μM
  MIC pH 7.4: 125 μM

## FKKFWKWFRRFGGGRWRWRWF-NH2 [FBRW-14, FKKFWKWFRRF-GGG-RWRWRWF*]
[4]
  MIC V. atypica PK1910: 8 µg/mL
[5]
  MIC L. casei ATCC 4646: 8 µg/mL
[1]
  MIC (fusion library peptides): 4 to 16 µg/mL
[6]
  MIC S. gordonii Challis DL1: 32 µg/mL
[7]
  MIC S. mitis ATCC 903: 64 µg/mL
[8]
  MIC S. sanguinis NY101: 16 µg/mL

## FHFFHHFFHFFHHFKLLK [AA-5, FHFFHHFFHFFHHFKLLK]
[3]
  MIC pH 4.9: 28.125 μM
  MIC pH 7.4: >125 μM

## RRRWWWF-NH2 [Peptide 2C-3, RRRWWWF*]
[4]
  MIC V. atypica PK1910: 64 µg/mL
[5]
  MIC L. casei ATCC 4646: 16 µg/mL
[1]
  MIC: 4 to 8 µg/mL
[2]
  TC, time required to kill 3 log10 of recoverable CFU/ml: 220 min
[6]
  MIC S. gordonii Challis DL1: 32 µg/mL
[7]
  MIC S. mitis ATCC 903: 32 µg/mL
[8]
  MIC S. sanguinis NY101: 16 µg/mL

## RWRWRWF-NH2 [Peptide 2C-4, RWRWRWF*]
[4]
  MIC V. atypica PK1910: 64 µg/mL
[5]
  MIC L. casei ATCC 4646: 32 µg/mL
[1]
  MIC: 4 to 8 µg/mL
[6]
  MIC S. gordonii Challis DL1: 32 µg/mL
[7]
  MIC S. mitis ATCC 903: 32 µg/mL
[8]
  MIC S. sanguinis NY101: 32 µg/mL

## IKQLLHFFQRFGGGRWRWRWF-NH2 [FBRW-15, IKQLLHFFQRF-GGG-RWRWRWF*]
[4]
  MIC V. atypica PK1910: 8 µg/mL
[5]
  MIC L. casei ATCC 4646: 16 µg/mL
[1]
  MIC (fusion library peptides): 4 to 16 µg/mL
[6]
  MIC S. gordonii Challis DL1: 32 µg/mL
[7]
  MIC S. mitis ATCC 903: 64 µg/mL
[8]
  MIC S. sanguinis NY101: 16 µg/mL

## RRRWWWFGGGRRRWWWF-NH2 [FRW-5, RRRWWWF-GGG-RRRWWWF*]
[1]
  MIC (fusion library peptides): 16 µg/mL
[2]
  TC, time required to kill 3 log10 of recoverable CFU/ml: 270 min

## RWRRLLKKLHHLLHGGGFKKFWKWFRRF-NH2 [FBα-20, RWRRLLKKLHHLLH-GGG-FKKFWKWFRRF*]
[4]
  MIC V. atypica PK1910: 8 µg/mL
[5]
  MIC L. casei ATCC 4646: 8 µg/mL
[1]
  MIC (fusion library peptides): 4 to 8 µg/mL
[6]
  MIC S. gordonii Challis DL1: 16 µg/mL
[7]
  MIC S. mitis ATCC 903: 32 µg/mL
[8]
  MIC S. sanguinis NY101: 16 µg/mL

## RWRWRWFASASARWRWRWF-NH2 [FRW-9, RWRWRWF-ASASA-RWRWRWF*]
[1]
  MIC (fusion library peptides): 16 µg/mL
[2]
  TC, time required to kill 3 log10 of recoverable CFU/ml: 45 min

## RWRRLLKKLHHLLH-NH2 [α-11, RWRRLLKKLHHLLH*]
[4]
  MIC V. atypica PK1910: 4 µg/mL
[5]
  MIC L. casei ATCC 4646: 16 µg/mL
[1]
  MIC: 8 µg/mL
[6]
  MIC S. gordonii Challis DL1: 16 µg/mL
[7]
  MIC S. mitis ATCC 903: 32 µg/mL
[8]
  MIC S. sanguinis NY101: 16 µg/mL

## FHYFWHWFHRF [AA-6, FHYFWHWFHRF]
[3]
  MIC pH 4.9: >50 μM
  MIC pH 7.4: 125 μM

## RWRWRWFGGGFKKFWKWFRRF-NH2 [FBRW-22, RWRWRWF-GGG-FKKFWKWFRRF*]
[4]
  MIC V. atypica PK1910: 8 µg/mL
[5]
  MIC L. casei ATCC 4646: 8 µg/mL
[1]
  MIC (fusion library peptides): 4 to 8 µg/mL
[6]
  MIC S. gordonii Challis DL1: 16 µg/mL
[7]
  MIC S. mitis ATCC 903: 64 µg/mL
[8]
  MIC S. sanguinis NY101: 8 µg/mL

## RWRWRWFRWRWRWF-NH2 [FRW-8, RWRWRWFRWRWRWF*]
[1]
  MIC (fusion library peptides): 16 µg/mL
[2]
  TC, time required to kill 3 log10 of recoverable CFU/ml: 50 min
